In PMC8010095, “Discovery of novel antituberculosis agents among 3-phenyl-5-(1-phenyl-1H-[1,2,3]triazol-4-yl)-[1,2,4]oxadiazole derivatives targeting aminoacyl-tRNA synthetases” (Scientific Reports, 2021):
Where two headings read alike, the source gives them in different places.

Experiments:
M. tuberculosis H37Rv = assay: microbe, parasite or virus in culture; assay type: cell-based; conditions: > 80% reduction in growth, screened at 20, 2 and 0.2 mg/L, 7H9 complete medium
[1] = system: Mycobacterium abscessus (ATCC 19,977); assay: microbe, parasite or virus in culture; assay type: cell-based; conditions: > 80% reduction in growth, screened at 20, 2 and 0.2 mg/L, 7H9 complete medium
[2] = system: Mycobacterium avium (ATCC 700,891 MAC 101); assay: microbe, parasite or virus in culture; assay type: cell-based; conditions: > 80% reduction in growth, screened at 20, 2 and 0.2 mg/L, 7H9 complete medium
[3] = target: T1, M. tuberculosis leucyl-tRNA synthetase (LeuRS) (Mycobacterium tuberculosis, UniProt P9WFV1); assay: biochemical; assay type: biochemical
T1 construct: made in house; host or cells: Escherichia coli
T1 sequence (P9WFV1 whole entry): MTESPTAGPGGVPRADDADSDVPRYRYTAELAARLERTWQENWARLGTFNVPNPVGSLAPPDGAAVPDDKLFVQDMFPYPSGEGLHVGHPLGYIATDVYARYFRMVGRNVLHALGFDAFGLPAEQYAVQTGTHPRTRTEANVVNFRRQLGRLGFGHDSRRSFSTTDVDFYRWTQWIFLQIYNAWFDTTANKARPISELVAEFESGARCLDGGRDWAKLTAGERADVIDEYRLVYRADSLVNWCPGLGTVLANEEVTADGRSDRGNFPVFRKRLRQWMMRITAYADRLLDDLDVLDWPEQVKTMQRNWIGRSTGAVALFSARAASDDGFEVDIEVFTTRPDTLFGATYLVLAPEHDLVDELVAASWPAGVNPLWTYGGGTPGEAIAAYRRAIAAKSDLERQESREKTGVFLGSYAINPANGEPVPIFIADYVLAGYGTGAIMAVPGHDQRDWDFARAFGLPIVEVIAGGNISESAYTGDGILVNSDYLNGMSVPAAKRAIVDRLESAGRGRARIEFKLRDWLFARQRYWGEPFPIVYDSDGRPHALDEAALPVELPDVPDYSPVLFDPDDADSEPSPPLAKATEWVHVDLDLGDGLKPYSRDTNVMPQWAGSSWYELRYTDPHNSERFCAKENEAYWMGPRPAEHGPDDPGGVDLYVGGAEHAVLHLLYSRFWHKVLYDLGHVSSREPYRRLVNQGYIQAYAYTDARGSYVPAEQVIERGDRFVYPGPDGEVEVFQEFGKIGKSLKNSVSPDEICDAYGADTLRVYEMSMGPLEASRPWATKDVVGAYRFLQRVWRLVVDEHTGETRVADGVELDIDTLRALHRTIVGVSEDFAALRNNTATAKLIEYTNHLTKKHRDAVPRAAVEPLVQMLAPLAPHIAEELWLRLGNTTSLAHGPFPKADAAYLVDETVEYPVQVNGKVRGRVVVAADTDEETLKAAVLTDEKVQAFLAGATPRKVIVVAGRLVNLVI

[4] = target: T2, M. tuberculosis methionyl-tRNA synthetase (MetRS) (Mycobacterium tuberculosis, UniProt P9WFU5); assay: biochemical; assay type: biochemical
T2 construct: made in house; host or cells: Escherichia coli
T2 sequence (P9WFU5 whole entry): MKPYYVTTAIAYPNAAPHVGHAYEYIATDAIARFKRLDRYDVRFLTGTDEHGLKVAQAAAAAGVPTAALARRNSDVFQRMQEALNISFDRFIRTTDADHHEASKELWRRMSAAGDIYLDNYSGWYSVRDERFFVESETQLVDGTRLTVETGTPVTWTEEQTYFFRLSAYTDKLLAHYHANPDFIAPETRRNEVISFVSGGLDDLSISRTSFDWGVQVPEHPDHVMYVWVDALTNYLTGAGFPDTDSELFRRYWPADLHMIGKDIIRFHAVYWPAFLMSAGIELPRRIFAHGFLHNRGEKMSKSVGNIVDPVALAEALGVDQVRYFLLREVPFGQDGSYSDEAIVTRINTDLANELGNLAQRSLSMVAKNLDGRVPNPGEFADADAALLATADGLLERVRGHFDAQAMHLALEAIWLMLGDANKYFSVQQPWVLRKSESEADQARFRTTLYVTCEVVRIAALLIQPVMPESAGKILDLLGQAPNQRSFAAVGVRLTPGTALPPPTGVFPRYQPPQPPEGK

[5] = recombinant enzyme, mean ± spread (n in brackets), negative = activation

SMILES	Growth inhibition cutoff, H37Rv (M. tuberculosis H37Rv)	Growth inhibition cutoff, M. abscessus 19,977 [1]	Growth inhibition cutoff, M. avium 700,891 (MAC 101) [2]	MetRS inhibition activity, % [4, 5]	other results
Nc1c(-c2nc(-c3ccccc3)no2)nnn1-c1ccccc1F [Compound 1]	> 20 mg/L	> 20 mg/L	> 20 mg/L	–	–
Nc1c(-c2nc(-c3ccccc3)no2)nnn1-c1ccc(C(F)(F)F)c(Cl)c1 [Compound 2]	–	–	–	–	LeuRS inhibition activity, % [3]: 32 ± 19 (3) %; IC50 ([3]; mean ± s.d. (n = 3)): 76.5 ± 66 µM; MetRS inhibition activity, % [4]: 71 ± 29 (2) %; IC50 ([4]; mean ± s.d. (n = 3)): 115 ± 3 µM; MIC (M. tuberculosis H37Rv; Mycobacterium tuberculosis, H37RV, read-out: Growth inhibition cutoff, H37Rv): > 20 µg/mL; MIC ([1]; Mycobacteroides abscessus, ATCC19, read-out: Growth inhibition cutoff, M. abscessus 19,977): > 20 µg/mL; MIC ([2]; Mycobacterium avium, ATCC700, read-out: Growth inhibition cutoff, M. avium 700,891 (MAC 101)): > 20 µg/mL
Cc1c(-c2nc(-c3ccccc3F)no2)nnn1-c1ccc(F)c(Cl)c1 [Compound 4]	> 20 mg/L	> 20 mg/L	> 20 mg/L	–	LeuRS inhibition activity, % [3, 5]: 11 ± 8 (3) %
Cc1c(-c2nc(-c3ccccc3F)no2)nnn1-c1ccc(Br)cc1 [Compound 5]	> 20 mg/L	> 20 mg/L	> 20 mg/L	–	LeuRS inhibition activity, % [3, 5]: 17 ± 10 (2) %
Cc1c(-c2nc(-c3ccccc3F)no2)nnn1-c1cc(F)ccc1F [Compound 6]	> 20 mg/L	> 20 mg/L	> 20 mg/L	–	–
Cc1c(-c2nc(-c3ccccc3Cl)no2)nnn1-c1cccc(F)c1 [Compound 7]	> 20 mg/L	> 20 mg/L	> 20 mg/L	–	LeuRS inhibition activity, % [3, 5]: 71 ± 5 (2) %
Cc1ccccc1-c1noc(-c2nnn(-c3ccc(Br)cc3)c2C)n1 [Compound 8]	> 20 mg/L	> 20 mg/L	> 20 mg/L	–	LeuRS inhibition activity, % [3, 5]: 18 ± 4 (2) %
Nc1c(-c2nc(-c3ccc(F)cc3)no2)nnn1-c1ccccc1 [Compound 9]	> 20 mg/L	> 20 mg/L	> 20 mg/L	30 ± 2 (2) %	LeuRS inhibition activity, % [3, 5]: 1 ± 8 (2) %
Nc1c(-c2nc(-c3ccc(F)cc3)no2)nnn1-c1ccc(Cl)cc1 [Compound 10]	> 20 mg/L	> 20 mg/L	> 20 mg/L	23 ± 25 (3) %	–
Nc1c(-c2nc(-c3ccc(F)cc3)no2)nnn1-c1ccc(Br)cc1 [Compound 11]	> 20 mg/L	> 20 mg/L	> 20 mg/L	–	–
Nc1c(-c2nc(-c3ccc(F)cc3)no2)nnn1-c1cccc(F)c1 [Compound 15]	> 20 mg/L	> 20 mg/L	> 20 mg/L	–	–
Nc1c(-c2nc(-c3ccc(F)cc3)no2)nnn1-c1cccc(Cl)c1 [Compound 16]	> 20 mg/L	> 20 mg/L	> 20 mg/L	47 ± 19 (2) %	–
Nc1c(-c2nc(-c3ccc(F)cc3)no2)nnn1-c1cccc(C(F)(F)F)c1 [Compound 19]	> 20 mg/L	> 20 mg/L	> 20 mg/L	53 ± 0.7 (2) %	–
COc1ccc(-n2nnc(-c3nc(-c4ccc(F)cc4)no3)c2N)cc1OC [Compound 21]	> 20 mg/L	> 20 mg/L	> 20 mg/L	–	–
Nc1c(-c2nc(-c3ccc(F)cc3)no2)nnn1-c1ccc(F)cc1F [Compound 22]	> 20 mg/L	> 20 mg/L	> 20 mg/L	59 ± 9 (2) %	–
COc1ccccc1-n1nnc(-c2nc(-c3ccc(F)cc3)no2)c1N [Compound 26]	> 20 mg/L	> 20 mg/L	> 20 mg/L	–	–
COc1ccc(C)cc1-n1nnc(-c2nc(-c3ccc(F)cc3)no2)c1N [Compound 28]	> 20 mg/L	> 20 mg/L	> 20 mg/L	37 ± 3 (2) %	–
COc1ccc(OC)c(-n2nnc(-c3nc(-c4ccc(F)cc4)no3)c2N)c1 [Compound 29]	> 20 mg/L	> 20 mg/L	> 20 mg/L	14 ± 14 (2) %	–
CCOc1ccccc1-n1nnc(-c2nc(-c3ccc(F)cc3)no2)c1N [Compound 30]	> 20 mg/L	> 20 mg/L	> 20 mg/L	19 ± 0.9 (2) %	–
Nc1c(-c2nc(-c3ccc(Br)cc3)no2)nnn1-c1ccc(F)cc1 [Compound 32]	> 20 mg/L	> 20 mg/L	> 20 mg/L	46 ± 32 (2) %	–
Nc1c(-c2nc(-c3ccc(Br)cc3)no2)nnn1-c1cccc(F)c1 [Compound 33]	> 20 mg/L	> 20 mg/L	> 20 mg/L	55 ± 4 (2) %	–
COc1ccccc1-n1nnc(-c2nc(-c3ccc(Br)cc3)no2)c1N [Compound 35]	> 20 mg/L	> 20 mg/L	> 20 mg/L	61 ± 47 (3) %	–
CCOc1ccccc1-n1nnc(-c2nc(-c3ccc(Br)cc3)no2)c1N [Compound 36]	> 20 mg/L	> 20 mg/L	> 20 mg/L	25 ± 5 (2) %	–
COc1ccc(-c2noc(-c3nnn(-c4cc(Cl)ccc4OC)c3N)n2)cc1 [Compound 37]	> 20 mg/L	> 20 mg/L	> 20 mg/L	–	–
COc1ccc(-c2noc(-c3nnn(-c4ccc(Cl)cc4)c3C)n2)cc1OC [Compound 38]	> 20 mg/L	> 20 mg/L	> 20 mg/L	25 ± 18 (2) %	–
CCOc1ccc(-c2noc(-c3nnn(-c4ccccc4F)c3N)n2)cc1 [Compound 39]	> 20 mg/L	> 20 mg/L	> 20 mg/L	35 ± 6 (2) %	–
CCOc1ccc(-c2noc(-c3nnn(-c4ccc(F)c(Cl)c4)c3N)n2)cc1 [Compound 41]	> 20 mg/L	> 20 mg/L	> 20 mg/L	59 ± 22 (2) %	–
